Experimental data reported in patent publication US20090117089A1, “GLYCOLIPIDS AND ANALOGUES THEREOF AS ANTIGENS FOR NK T CELLS” (The Rockefeller University, priority 2005, published 2009).

Tests used:
spleen CD11c+ DCs = test: DC maturation in vivo (surface markers, flow cytometry); set-up: species or system mouse; settings: for dose dependence of DC maturation: 2, 0.2, 0.02 and 0.002 μg/mouse; for DC maturation response compared with αCD40 mAb and polyIC: 15 h following i.v. administration; for DC maturation in Jα281−/− mice: mice lacking NKT cells; for phenotypic changes of DC maturation (CD40, CD86, MHC class II, B7-H1, B7-DC up, CD119 down): mouse, in vivo; for induction of splenic DC maturation in vivo: surface activation markers
Method: 2×10^7 irradiated J558-Ld^− cells, were injected i.v. or s.c. into Balb/c mice with or without α-Gal Cer as a DC maturation stimulus. In some experiments we compared α-Gal Cer to agonistic anti-CD40 mAb (1C10, 25 μg i.p.) or the toll like receptor ligands, poly IC ([…], Invivogen) or lipopolysaccharide (20 μgm, Sigma). The mice had been given CFSE-labeled PICTL CD8^+ T cells i.v. 1 d earlier, or were naive animals. In some experiments, mice were sacrificed 3 d later, and T cell division and activation in spleen were analyzed by flow cytometry. Additionally, 7 d or 2 months later, 5×10^6 live J558 tumor cells were inoculated subcutaneously. 5×10^6 Meth A fibrosarcoma was used as a control tumor for challenge. Tumor cell growth was measured with calipers every other day. Mice were scored positive for tumor as soon as tumors became palpable and grew progressively. Mice were euthanized when tumor size exceeded 400 mm^2.
T-cell division, phagocytosis of CFSE-labeled tumor cells and acquisition of cell surface-activation markers were determined by flow cytometry. Briefly, spleens were harvested and low-density splenocytes were stained with CD11c-APC and CD8α-PE, CD11b-PE, B220-PE or CD4-PE for the up-take examination. For in vivo proliferation of P1CTL T-cells, spleens were harvested and the splenocytes suspension was staining with CD8α-Cy, Vα8α-PE, CD25-PE, CD62L-PE. For intracellular cytokine staining, splenocytes were stimulated in vitro with 1 µg/ml P1A peptide in 5 μg/ml brefeldin A (Sigma-Aldrich) at 37° C. for 4 hrs. The cells were first stained with CD8α-Cy-Chrome™, fixed and permeabilized with cytofix-cytoperm buffer (BD Biosciences), and stained with PE conjugated mAbs to IL-2 or IFN-γ.
Flow cytometry. Acquisition of cell surface-activation markers was determined by flow cytometry. […] Spleen CD11c+ DCs were isolated using anti-CD11c magnetic beads and stained with CD11c-FITC, CD8α− allophycocyanin, and PE-Conjugated I-Ad, CD40, CD80, CD86, CD119, B7-H1 and B7-DC. We used a FACSCalibur™ with data analysis in FlowJo (Tree Star).

[1] = tested on: Vα24i human NKT cell line; test: In vitro cytokine secretion assay using human NKT cell lines; type: cell-based; settings: CD14+ immature dendritic cells; 10 μg/ml glycolipid (1-10 μg/ml for 3-O-sulfo-α-galactosylceramide); 10 IU/ml IL-2
Method: (§1) Human NKT cell lines, expressing the Vα24i T cell receptor as well as CD161, were generated as follows: Anti-CD161 monoclonal antibodies, and anti-CD14 monoclonal antibodies, each coupled to magnetic beads (Miltenyi biotec, Auburn, Calif.), were used sequentially to isolate CD161^+ cells and CD14^+ cells from leukopaks. Immature dendritic cells were generated from the CD14^+ cells after a two-day incubation in the presence of 300 U/ml GM-CSF (R&D systems, Minneapolis, Minn.) and 100 U/ml IL-4 (R&D systems, Minneapolis, Minn.). Following irradiation with 2000 rads, the immature dendritic cells were co-cultured with syngeneic CD161^+ cells in the presence of 100 ng/ml of alpha-galactosylceramide and 10 IU/ml of IL-2 (Invitrogen, Carlsbad Calif.) for 10 to 14 days. After stimulating the CD161^+ cells a second time with alpha-galactosylceramide-pulsed, irradiated immature dendritic cells, NKT cell lines were shown by flow cytometry to express both CD161^+ and V 24i TCR (99% purity).
(§2) IFN-γ and IL-4 secretion by the Vα 24i human NKT cell line was determined by ELISA (BD Pharmingen, San Diego, Calif.) after culture for 16 hours. For these assays, 1×10^5 Vα 24i human NKT cells were co-cultured with 4×10^5 irradiated, immature CD14^+ dendritic cells, in the presence of the glycolipid compounds at 10 μg/ml in a 96-well flat-bottom plate.
as §1, with “of 100-0.1” for “of 100”
In some cases, Hela cells were transfected with a human CD1d construct [Xing et al. 2005. Bioorg Med Chem 13: 2907], and were used to present the glycolipids, via pulsing with the respective compounds at the indicated concentration, to NKT lines.
as §2, with “IFN-γ” for “IFN-γ and IL-4”

[2] = tested on: spleen CD11c+ cells (DCs and NK cells); test: Cytokine production by DCs after in vivo glycolipid; set-up: species or system mouse; settings: for IL-12p40, IL-6 and TNF-α from DCs of primed mice: cultured in the presence of αCD40, ELISA and Luminex, data not shown
Method: Cytokine production by DCs. After mice were given αGalCer or Compound 24 i.v., CD11c+ cells were isolated with anti-CD11c magnetic beads and cultured 4 h in the presence of Golgistop (from Cytofix/CytoPerm Plus kit; BD Biosciences). Cells were then stained for surface markers (CD11c and DX-5), permeabilized in 100 μl Cytofix/Cytoperm solution using manufacturer's instructions and stained for intracellular cytokines (IFN-γ and IL-12).

A20 tumor cells = test: Tumor protection assay, A20; type: in vivo, mouse; settings: A20 challenge s.c.
Method: Mice were also injected i.v. with PBS, 2 μg α-Gal Cer, 5×10^6 irradiated A20 cells with or without 2 μg α-Gal Cer i.v. Two weeks later, mice were challenged with a lethal tumorogenic dose of 5×10^6 live A20 s.c. The mice were monitored every other day for tumor growth and were scored positive when the tumors were palpable.

[3] = 2 μg or 0.2 μg, 2, 6, 12 h in vivo, intracellular staining

Compound | dose dependence of DC maturation (spleen CD11c+ DCs) | DC maturation response compared with αCD40 mAb and polyIC (spleen CD11c+ DCs) | surface markers on CD11c+CD8− DCs (spleen CD11c+ DCs; 15 hours after i.v. glycolipid) | marker expression on DCs that captured dying tumor cells (CD11c+ CFSE+) (spleen CD11c+ DCs; co-injection with irradiated J558− cells i.v.) | maturation of total CD11c+ splenic DCs (MHC II, CD80, CD86, B7-H1, B7-DC) (spleen CD11c+ DCs; co-injection with irradiated J558− cells i.v., 5 hours) | DC maturation in Jα281−/− mice (spleen CD11c+ DCs) | phenotypic changes of DC maturation (CD40, CD86, MHC class II, B7-H1, B7-DC up, CD119 down) (spleen CD11c+ DCs) | induction of splenic DC maturation in vivo (spleen CD11c+ DCs) | IFN-γ secretion [1] | IL-4 secretion [1] | IL-12p40, IL-6 and TNF-α from DCs of primed mice [2] | tumor outcome after combined vaccination (A20 tumor cells; irradiated A20 cells and α-Gal Cer i.v.) | tumor outcome after glycolipid alone (A20 tumor cells; α-Gal Cer pretreatment alone) | upregulation of activation markers on CD11c+CD8+ DCs (spleen CD11c+ DCs; 15 hours after i.v. glycolipid, 2 or 0.2 μg per mouse) | production of IFN-γ by CD11c+DX5+ NK cells, vs. αGalCer [2, 3] | production of IL-12 by CD11c+DX5− DCs, vs. αGalCer [2, 3]
CCCCCCCCCCCCCCCCCCCCCCCCCC(=O)N[C@@H](CO[C@H]1O[C@H](CO)[C@H](O)[C@H](O)[C@H]1O)[C@H](O)[C@H](O)CCCCCCCCCCCCCC [α-GalCer, 2S,3S,4R-1-O(α-galactopyranosyl)-2(N-hexacosanoylamino)-1,3,4-octadecanetriol] | correlated with the dose of glycolipid administered | paralleled and exceeded those seen with other known stimuli for DC maturation in vivo | induced strong upregulation of CD86, B7-H1 and B7-DC but only slightly upregulated MHC II, CD40 and CD80 | strongly upregulated the expression of antigen presenting and costimulatory molecules | resulted in the maturation of the total CD11c^+ DC population | did not mature | induced similar phenotypic changes of maturation | rapid and efficient inducers of splenic DC maturation in vivo | greater IFN-γ and IL-4 secretion | greater IFN-γ and IL-4 secretion | significant but comparable amounts of IL-12p40, IL-6 and TNF-α | protected and remained tumor-free | development of palpable tumors |  |  | 
3-O-sulfo-alpha-galactosylceramide [Compound 24] | correlated with the dose of glycolipid administered | paralleled and exceeded those seen with other known stimuli for DC maturation in vivo | induced strong upregulation of CD86, B7-H1 and B7-DC but only slightly upregulated MHC II, CD40 and CD80 |  |  | did not mature | induced similar phenotypic changes of maturation | rapid and efficient inducers of splenic DC maturation in vivo |  |  | significant but comparable amounts of IL-12p40, IL-6 and TNF-α |  |  | comparable to αGalCer | significantly higher | significantly higher
